Laboratory results as given in US11044909B2, “Composition for destruction of microalgae or sphaerocarpus” (CUREARTH, INC., priority 2015, dated 2021).
Like-named read-outs stand apart in the source and are kept apart here.

Experiments:
Test in all cases: Microalgae-destroying effect by IC50 measurement (cell count)
Type in all cases: cell-based
[1] = tested on: Heterocapsa Circularisquama; conditions: 24 h, cultured 1 day
Procedure: (§1) The IC50 value was obtained according to Equation 1: […]
(§2) First, the above-listed microalgae were cultured in a culture flask at a temperature of about 20° C. under light conditions, and a medium used was Guillard's f/2 medium which is commonly used in the art (Guillard R R L and Keller M D. Culturing dinoflagellates. In: Spector (Ed.), Dinoflagellates. New York: Academic Press; 1984, 391442).
(§3) After the cultured microalgae were transferred onto a 24-well plate, Chattonella Marina, Heterosigma circularisquama, Cochlodinium Polykrikoides, and Heterosigma akashiwo, which were in an exponential growth phase, were treated with Compounds 1 to 3, 5 to 10, 12, 13, 17 to 43, and 45 to 47 synthesized in Examples 1 to 3, 5 to 10, 12, 13, 17 to 43, and 45 to 47 at concentrations of 0.1 uM, 0.2 uM, 0.5 uM, 1 uM, 2 uM, and 5 uM, and then cultured for 1 day.
(§4) Control groups were not treated with any of the compounds synthesized in the above-identified examples. After incubation, the number of cells of each alga was counted using a Burker-Tukr hemocytometer, and IC50 values were calculated according to Equation 1 using SigmaPlot Version 11.2 software (Standard curve: the four-parameter logistic curve).

Chattonella Marina = conditions: 24 h, cultured 1 day, read-out: IC50 Chattonella Marina
Procedure: as §1, §2, §3, §4

Heterosigma Akashiwo = conditions: 24 h, cultured 1 day, read-out: IC50 Heterosigma Akashiwo
Procedure: as §1, §2, §3, §4

[2] = tested on: Cochlodinium Polykrikoides; conditions: Margalefidinium polykrikoides, 24 h, 0.1-5 uM, cultured 1 day, read-out: IC50 Cochlodinium Polykrikoides
Procedure: (§5) The IC50 value was obtained according to Equation 1:
(§6) The algicidal activity of each compound was calculated using Equation 2: Algicidal activity (%)=(1−Tt/Ct)×100 <Equation 2>
(§7) In Equation 2, T (treatment group) and C (control group) represent algae densities in cell counts when each compound was inoculated and was not inoculated, respectively, and t represents the number of days which had passed after the inoculation.
as §2, §3, §4

Microcystis aeruginosa = conditions: read-out: IC50 Microcystis aeruginosa
Procedure: as §5, §6, §7, §2
Microcystis aeruginosa was treated with Compounds 1 to 3, 5 to 10, 12, 13, 17 to 43, and 45 to 51 synthesized in Examples 1 to 3, 5 to 10, 12, 13, 17 to 43, and 45 to 51 at concentrations of 0.1 uM, 0.2 uM, 0.5 uM, 1 uM, 2 uM, 5 uM, 10 uM, 15 uM, and 20 uM and then cultured for 5 days.
as §4

[3] = Table 1, 3,4-dichlorobenzylamines, 0.1-5 uM, read-out: IC50 Heterocapsa Circularisquama
[4] = Table 1, 3,4-dichlorobenzylamines, 0.1-5 uM
[5] = Table 1, 3,4-dichlorobenzylamines
[6] = Microcystis aeruginosa, 120 h, Table 1, 3,4-dichlorobenzylamines, 0.1-20 uM, cultured 5 days
[7] = Table 2, 0.1-5 uM, read-out: IC50 Heterocapsa Circulariaquama

| Structure (SMILES) | IC50 [1, 3] [nM] | IC50 (Chattonella Marina; [4]) [nM] | IC50 (Heterosigma Akashiwo; [4]) [nM] | IC50 [2, 5] [nM] | IC50 (Microcystis aeruginosa; [6]) [nM] | IC50 [1, 7] [nM] | IC50 (Chattonella Marina; Table 2, 0.1-5 uM) [nM] | IC50 (Heterosigma Akashiwo; Table 2, 0.1-5 uM) [nM] | IC50 ([2]; Table 2) [nM] | IC50 (Microcystis aeruginosa; Microcystis aeruginosa, 120 h) [nM] | IC50 (Microcystis aeruginosa; Table 1, 3,4-dichlorobenzylamines, 0.1-20 uM, cultured 5 days) [nM] |
| --- | --- | --- | --- | --- | --- | --- | --- | --- | --- | --- | --- |
| CCN(CC)CCNCc1ccc(Cl)c(Cl)c1 [Compound 1, N′-(3,4-dichloro-benzyl)-N,N-diethyl-ethane-1,2-diamine] | 1760 | 2900 | 1580 | 2300 | 4890 |  |  |  |  |  |  |
| CN(C)CCNCc1ccc(Cl)c(Cl)c1 [Compound 3, N′-(3,4-Dichloro-benzyl)-N,N-dimethyl-ethane-1,2-diamine] | 3100 | > 5000 | 2250 | > 5000 | 8410 |  |  |  |  |  |  |
| COCCNCc1ccc(Cl)c(Cl)c1 [Compound 5, (3,4-dichloro-benzyl)-(2-methoxy-ethyl)-amine] | > 5000 | > 5000 | 1300 | > 5000 | 14200 |  |  |  |  |  |  |
| COC(CCCNCc1ccc(Cl)c(Cl)c1)OC [Compound 6, (3,4-Dichloro-benzyl)-(4,4-dimethoxy-butyl)-amine] | 4800 | > 5000 | 1300 | 4420 | 8640 |  |  |  |  |  |  |
| CC(C)CCNCc1ccc(Cl)c(Cl)c1 [Compound 7, (3,4-Dichloro-benzyl)-(3-methyl-butyl)-amine] | 1500 | 2000 | 280 | 1530 | 11600 |  |  |  |  |  |  |
| CN(C)CCCNCc1ccc(Cl)c(Cl)c1 [Compound 8, N′-(3,4-Dichloro-benzyl)-N,N-dimethyl-propane-1,3-diamine] | 3300 | 810 | 1260 | 290 | 90 |  |  |  |  |  |  |
| CCN(CC)CCNC(=O)c1ccc(Cl)c(Cl)c1 [Compound 9, 3,4-Dichloro-N-(2-diethylamino-ethyl)-benzamide] |  |  |  |  |  | 1970 | > 5000 | 1850 | 4550 | 970 |  |
| CN(C)CCNC(=O)c1ccc(Cl)c(Cl)c1 [Compound 10, 3,4-Dichloro-N-(2-dimethylamino-ethyl)-benzamide] |  |  |  |  |  | > 5000 | > 5000 | 1630 | > 5000 | > 5000 |  |
| CN(C)CCCNC(=O)c1ccc(Cl)c(Cl)c1 [Compound 12, 3,4-Dichloro-N-(3-dimethylamino-propyl)-benzamide] |  |  |  |  |  | > 5000 | > 5000 | 1550 | > 5000 | > 5000 |  |
| CCN(CC)CCCNC(=O)c1ccc(Cl)c(Cl)c1 [Compound 13, 3,4-Dichloro-N-(3-diethylamino-propyl)-benzamide] |  |  |  |  |  | 5000 | 4500 | 2270 | 2220 | > 5000 |  |
| CCNCc1ccc(Cl)c(Cl)c1 [Compound 17, (3,4-Dichloro-benzyl)-ethyl-amine] | > 5000 | > 5000 | 1180 | > 5000 | > 20000 |  |  |  |  |  |  |
| CCCNCc1ccc(Cl)c(Cl)c1 [Compound 18, (3,4-Dichloro-benzyl)-propyl-amine] | > 5000 | 2670 | 730 | 4380 | 11800 |  |  |  |  |  |  |
| Clc1ccc(CNc2ccccc2)cc1Cl [Compound 19, (3,4-Dichloro-benzyl)-phenyl-amine] | > 5000 | 3500 | 1270 | 4140 | 13800 |  |  |  |  |  |  |
| CCCCNCc1ccc(Cl)c(Cl)c1 [Compound 20, Butyl-(3,4-dichloro-benzyl)-amine] | 2860 | 3160 | 440 | 3520 | > 20000 |  |  |  |  |  |  |
| Clc1ccc(NCc2ccc(Cl)c(Cl)c2)cc1 [Compound 21, (4-Chloro-phenyl)-(3,4-dichloro-benzyl)-amine] | 3300 | > 5000 | 1280 | 3600 | 9660 |  |  |  |  |  |  |
| O=C(/C=C/c1ccc(Cl)c(Cl)c1)c1ccccc1 [Compound 22, 3-(3,4-Dichloro-phenyl)-1-phenyl-propenone] |  |  |  |  |  | > 5000 | > 5000 | 3670 | 1660 | > 5000 |  |

| Structure (SMILES) | IC50 [1, 3] [nM] | IC50 (Chattonella Marina; [4]) [nM] | IC50 (Heterosigma Akashiwo; [4]) [nM] | IC50 [2, 5] [nM] | IC50 (Microcystis aeruginosa; [6]) [nM] | IC50 [1, 7] [nM] | IC50 (Chattonella Marina; Table 2, 0.1-5 uM) [nM] | IC50 (Heterosigma Akashiwo; Table 2, 0.1-5 uM) [nM] | IC50 ([2]; Table 2) [nM] | IC50 (Microcystis aeruginosa; Microcystis aeruginosa, 120 h) [nM] | IC50 (Microcystis aeruginosa; Table 1, 3,4-dichlorobenzylamines, 0.1-20 uM, cultured 5 days) [nM] |
| --- | --- | --- | --- | --- | --- | --- | --- | --- | --- | --- | --- |
| Fc1ccc(NCc2ccc(Cl)c(Cl)c2)cc1 [Compound 23, (3,4-Dichloro-benzyl)-(4-fluoro-phenyl)-amine] | > 5000 | > 5000 | 1540 | > 5000 | 11100 |  |  |  |  |  |  |
| O=C(/C=C/c1ccc(Cl)c(Cl)c1)c1ccc(Cl)cc1 [Compound 24, 1-(4-Chloro-phenyl)-3-(3,4-dichloro-phenyl)-propenone] |  |  |  |  |  | > 5000 | > 5000 | 1700 | 1330 | > 5000 |  |
| Clc1ccc(CNc2ccc(Br)cc2)cc1Cl [Compound 25, (4-Bromo-phenyl)-(3,4-dichloro-benzyl)-amine] | 2830 | > 5000 | 1190 | 4000 | 11100 |  |  |  |  |  |  |
| Clc1ccc(CNCc2ccccn2)cc1Cl [Compound 26, (3,4-Dichloro-benzyl)-pyridin-2-ylmethyl-amine] | > 5000 | 3400 | 720 | > 5000 | > 20000 |  |  |  |  |  |  |
| Clc1ccc(CNCc2cccnc2)cc1Cl [Compound 27, (3,4-Dichloro-benzyl)-pyridin-3-ylmethyl-amine] | 3550 | > 5000 | 790 | 2000 | > 20000 |  |  |  |  |  |  |
| Clc1ccc(CNCc2ccncc2)cc1Cl [Compound 28, (3,4-Dichloro-benzyl)-pyridin-4-ylmethyl-amine] | > 5000 | > 5000 | 2280 | > 5000 | 15200 |  |  |  |  |  |  |
| Clc1ccc(CNCc2ccccc2)cc1Cl [Compound 29, Benzyl-(3,4-dichloro-benzyl)-amine] | 3230 | 3460 | 600 | 2750 | 14400 |  |  |  |  |  |  |
| Clc1ccc(CNCCc2ccncc2)cc1Cl [Compound 30, (3,4-Dichloro-benzyl)-(2-pyridin-4-yl-ethyl)-amine] | 1910 | 3470 | 420 | 2700 | > 20000 |  |  |  |  |  |  |
| Clc1ccc(CNCCc2cccnc2)cc1Cl [Compound 31, (3,4-Dichloro-benzyl)-(2-pyridin-3-yl-ethyl)-amine] | 1600 | 3500 | 590 | 424 | > 20000 |  |  |  |  |  |  |
| Clc1ccc(CNCCc2ccccn2)cc1Cl [Compound 32, (3,4-Dichloro-benzyl)-(2-pyridin-2-yl-ethyl)-amine] | 1050 | 310 | 180 | 500 | 19600 |  |  |  |  |  |  |
| Clc1ccc(CNCCc2ccccc2)cc1Cl [Compound 34, (3,4-Dichloro-benzyl)-phenethyl-amine] | 1500 | 460 | 120 | 875 | 5970 |  |  |  |  |  |  |
| Clc1ccc(CNC2CCCCCC2)cc1Cl [Compound 36, Cycloheptyl-(3,4-dichloro-benzyl)-amine] | 690 | 250 | 263 | 150 | 3090 |  |  |  |  |  |  |
| CCN(CC)CCCNCc1ccc(Cl)c(Cl)c1 [Compound 48, N′-(3,4-Dichloro-benzyl)-N, N-diethyl-propane-1,3-diamine.2HCl] |  |  |  |  |  |  |  |  |  |  | 780 |
| CCCCN(CCCC)CCNCc1ccc(Cl)c(Cl)c1 [Compound 49, N,N-Dibutyl-N′-(3,4-dichlorobenzyl)ethane-1,2-diamine] |  |  |  |  | 880 |  |  |  |  |  |  |
| CCCCN(CCCC)CCCNCc1ccc(Cl)c(Cl)c1 [Compound 50, N,N-Dibutyl-N′-(3,4-dichlorobenzyl)propane-1,3-diamine] |  |  |  |  | 540 |  |  |  |  |  |  |
| OCCN(CCO)CCCNCc1ccc(Cl)c(Cl)c1 [Compound 51, 2-[[3-(3,4-Dichlorobenzylamino)propyl]-(2-hydroxyethyl)amino]ethanol] |  |  |  |  | 2270 |  |  |  |  |  |  |
